Measured values published in patent EP1856102B1, “MEDICAMENTS FOR ALZHEIMER” (Tseti, Ioulia, priority 2005, dated 2006).
Marks after values point to notes of the source that are not given here.

Columns and labels:
[1] = system: carrageenan-induced edema of the rat hind paw; assay: Carrageenan-induced edema of the rat hind paw; format: in vivo, female Fischer-344 rats; conditions: 0.3mmol/kg i.p. immediately after carrageenan; paws weighed 3.5 h later; edema suppression in comparison to controls
Protocol: Edema was induced via i.d. injection of carrageenan (0.1 ml of a 2% w/v aqueous solution) into the right hind paw of female Fischer-344 rats (200-220g) (the left paw serving as control). The compounds under study were dissolved or suspended in water containing a few drops of Tween 80 and were administered i.p. (0.3mmol/kg) immediately after the carrageenan injection. The mice were euthanazed 3.5 h later, both hind paws were severed above the ankle joint and weighted separately. For each animal the swelling caused by the phlogistic was given as percentage of weight increase of right hind paw in comparison to the uninjected left hind paw, and from that, the percentage of edema suppression in comparison to controls was calculated. The parent anti-inflammatory acids (at the same molar concentrations) were used as reference compounds, in addition to the absolute control. […] Table 1: Effect of the test compounds on carrageenan-induced edema of the rat hind paw

female Fischer-344 rats = conditions: s.c. once daily for 4 days, dose 84 µM/kg (Indomethacin, 1, 2, 3) or 1350 µM/kg (Naproxen, 4, 5); for Perforating ulcers (%): % of animals which developed perforating ulcers; for Mortality (%): (dead/total) x 100, recorded 24 h after last treatment
Protocol: Equimolar doses of the parent NSAIDs and the respective derivatives were administered s.c. once daily for 4 days to female Fischer-344 rats (160-180g). The used dose was ca LD50 of the parent NSAID. The incidence of perforating gastrointestinal ulcers, body weight change, melena and mortality were recorded 24 h after the last treatment. […] Table 3: Gastrointestinal toxicity of indomethacin, naproxen and some novel derivatives in rats

[2] = system: FCA-induced experimental arthritis in rats; assay: Adjuvant-induced disease (FCA-induced experimental arthritis); format: in vivo, female Fischer-344 rats; conditions: 0.3-0.6 mmol/kg i.p. once daily for 14 days; in comparison to non treated AID rats
Protocol: Adjuvant-induced disease (AID) was induced via i.d. injection of Freund's complete adjuvant (0.1 ml of FCA) in the foot pad of the right hind paw of female Fischer-344 rats. The compounds under study were dissolved or suspended in water containing a few drops of Tween 80 and were administered i.p. (0.3-0.6 mmol/kg) once daily for 14 days. In order to observe the progress of local inflammatory reaction, the change in swelling of paw with adjuvant treatment was evaluated by allocation of points (inflammatory score) on an arbitrary scale, while for the quantification of arthritis the arthritic score was recorded.
Table 2: Effect of the test compounds on FCA-induced experimental arthritis in rats

[3] = Interaction with the stable free radical DPPH; conditions: DPPH 0.2 mmol/L in ethanol, room temperature, 45 min
Protocol: The test compounds were dissolved in absolute ethanol (analytical grade, iron content was less than 10^-3 (w/v), added to an equal volume of an ethanolic solution of DPPH (final concentration 0.2 mmol/L) at various concentrations (0.1 and 0.2 mmol/L) and kept at room temperature. Absorbance (517 nm) was recorded at 45 min. Each experiment was performed at least in triplicate. Table 5: % Interaction of the test compounds with the stable free radical DPPH

[4] = system: lipid peroxidation of hepatic microsomal fraction; assay: In vitro lipid peroxidation (TBA reactive material); format: biochemical, Fischer-344 rats; conditions: at 45 min, 37°C; heat inactivated rat hepatic microsomal fraction, FeSO4/ascorbic acid
Protocol: Hepatic microsomal fraction from untreated Fischer-344 rats was prepared. The incubation mixture contained heat inactivated (90°C for 90 sec) hepatic microsomal fraction, corresponding to 2.5 mg protein/ml (fmal concentration) or 4 mmol/L fatty acid residues, ascorbic acid (0.2 mmol/L) in Tris-HCl/KCl buffer (50 mmol/L / 150mmol/L, pH 7.4) and various concentrations (1-0.05 mmol/L) of the test compounds dissolved in dimethylsulfoxide (DMSO). The reaction was started by the addition of a freshly prepared FeSO4 solution (10 µM/L) and the mixture was incubated at 37°C for 45 min. Aliquots (0.3mL) from the incubation mixture were taken at various time intervals. Lipid peroxidation was assessed spectrophotometrically (535 against 600 nm) by the determination of the TBA reactive material. Under the above experimental conditions, all compounds, as well as DMSO, were tested and found not to interfere with the assay. Each experiment was performed at least in triplicate.

[5] = system: tyloxapol-induced hyperlipidemia; assay: Tyloxapol-induced hyperlipidemia in rats; format: in vivo; conditions: 56µmol/kg i.p. once, 24 h later, tyloxapol 200 mg/kg i.p.; for % decrease LDL: plasma LDL-cholesterol; for % decrease TC: plasma total cholesterol; for % decrease TG: plasma triglyceride
Protocol: The hypocholesterolemic and hypolipidemic activity of the test compounds was assessed in vivo by the inhibition of tyloxapol-induced hyperlipidemia (200 mg/kg i.p.) in rats. The novel NSAID derivatives were administered (56µmol/kg, i.p., once) to hypercholesterolemic rats and 24 h later the plasma total cholesterol (TC), LDL and triglyceride (TG) concentrations were determined in blood taken from the aorta. […] Table 6: Effect of the test compounds on plasma total cholesterol, triglyceride and LDL-cholesterol levels of hyperlipidemic rats

Row | SMILES | % Edema inhibition [1] [%] | Perforating ulcers (%) (female Fischer-344 rats) | Mortality (%) (female Fischer-344 rats) | Body weight change (female Fischer-344 rats) | % Inhibition of experimental arthritis [2] [%] | % Interaction with the stable free radical DPPH ([3]; compound 0.2mM) [%] | % Interaction with the stable free radical DPPH ([3]; compound 0.1mm) [%] | IC50 [4] [µM] | % decrease LDL [5] | % decrease TC [5] | % decrease TG [5]
1 | COc1ccc2c(c1)c(CC(=O)N1CCCC1C(=O)NCCS)c(C)n2C(=O)c1ccc(Cl)cc1 (stereo not drawn) [Compound 1, 1-{2-[1-(4-Chloro-benzoyl)-5-methoxy-2-methyl-1-H-indol-3-yl]-acetyl}-pyrrolydine-2-carboxylic acid (2-mercapto-ethyl) amide] | 23 | 0 | 0 | +1.3 g/100 body weight | 50 |  |  |  |  |  | 
2 | CCOC(=O)C(CS)NC(=O)C1CCCN1C(=O)Cc1c(C)n(C(=O)c2ccc(Cl)cc2)c2ccc(OC)cc12 (stereo not drawn) [Compound 2, 2-[(1-{2-[1-(4-Chloro-benzoyl)-5-methoxy-2-methyl-1-H-indol-3-yl]-acetyl}-pyrrolidine-2-carbonyl)-amino]-3-mercapto-propionic acid ethyl ester] | 20 | 0 | 0 | +3.9 g/100 body weight | 75 | 70 | 44 | 390 |  |  | 
3 | COc1ccc2c(c1)c(CC(=O)N1CCCC1C(=O)Oc1ccc(C)cc1OC)c(C)n2C(=O)c1ccc(Cl)cc1 (stereo not drawn) [Compound 3, 1-{2-[1-(4-Chloro-benzoyl)-5-methoxy-2-methyl-1-H-indol-3-yl]-acetyl}-pyrrolidine-2-carboxylic acid-2-methoxy-4-methyl-phenyl ester] |  | 0 | 0 | +11.1 g/100 body weight |  |  |  |  |  |  | 
4 | COc1ccc2cc(C(C)C(=O)N3CCCC3C(=O)NCCS)ccc2c1 (stereo not drawn) [Compound 4, 1-[2-(6-methoxy-naphthalen-2-yl)-propionyl]-pyrrolidine-2-carboxylic acid-(2-mercapto-ethyl) amide] | 30 |  |  |  | 30 | 78 | 57 |  |  |  | 
5 | CCOC(=O)C(CS)NC(=O)C1CCCN1C(=O)C(C)c1ccc2cc(OC)ccc2c1 (stereo not drawn) [Compound 5] | 30 | 0 | 0 | +1.5 g/100 body weight | 100 | 85 | 65 | 320 | 55* % | 58** % | 68.7** %
6 | COc1ccc2cc(C(C)C(=O)N3CCCC3C(=O)Oc3ccc(C)cc3OC)ccc2c1 (stereo not drawn) [Compound 6, 1-[2-(6-methoxy-naphthalen-2-yl)-propionyl]-pyrrolidine-2-carboxylic acid 2-methoxy-4-methyl phenyl ester] | 20 |  |  |  |  |  |  |  |  |  | 
7 | COc1ccc2cc(C(C)C(=O)N3CC(O)CC3C(=O)NCCS)ccc2c1 (stereo not drawn) [Compound 7, 4-Hydroxy-1-[2-(6-methoxy-naphthalen-2-yl)-propionyl]-pyrrolidine-2-carboxylic acid-(2-mercapto-ethyl) amide] | 31 |  |  |  |  | 56 | 34 |  | 53.5 * % | 45* % | 51%
8 | CCOC(=O)C(CS)NC(=O)C1CC(O)CN1C(=O)C(C)c1ccc2cc(OC)ccc2c1 (stereo not drawn) [Compound 8] |  |  |  |  |  | 75 | 55 | 500 | 56.5* % | 35.5% | 25%
9 | CCOC(=O)C(CS)NC(=O)C1CCCCN1C(=O)C(C)c1ccc2cc(OC)ccc2c1 (stereo not drawn) [Compound 9] |  |  |  |  |  | 76 | 46 | 122 | 52* % | 40% | 21.3%
10 | COc1ccc2c(c1)c(CC(=O)O)c(C)n2C(=O)c1ccc(Cl)cc1 [Indomethacin, reference compound] | 47.8 |  | 50 |  |  |  |  |  |  |  | 
11 | COc1ccc2cc([C@H](C)C(=O)O)ccc2c1 [Naproxen, reference compound] | 45 |  | 50 |  |  |  |  |  |  |  | 
